Series [1] deals with HEK293. Put plainly: Cytotoxicity against human HEK293 cells at 120 uM after 72 hrs by Alamar blue assay. Format: cell-based. The conditions noted are these: hek293, 72 h. A general note: Resazurin is reduced to fluorescent resorufin, in cell work by metabolically active cells.
The nature of series [2]: in vitro. The conditions noted are these: human, HEK293 cells.
Description: Selectivity index, ratio of antimicrobial activity against Plasmodium falciparum Dd2 over cytotoxicity against human HEK293 cells
The nature of series [3]: in vitro. The conditions noted are these: human, HEK293 cells. This is another data set of the same source.
Description: Selectivity index, ratio of antimicrobial activity against Plasmodium falciparum 3D7 over cytotoxicity against human HEK293 cells
Series [4] deals with Plasmodium falciparum. Put plainly: microbe, parasite or virus in culture. The note with it: 3D7, 72 h.
Description: Antimalarial activity against chloroquine-sensitive Plasmodium falciparum 3D7 after 72 hrs by DAPI staining method
Series [5] has as its system Plasmodium falciparum. Kind of series: microbe, parasite or virus in culture. The note with it: Dd2, 72 h.
Description: Antimalarial activity against chloroquine-resistant Plasmodium falciparum Dd2 after 72 hrs by DAPI staining method
Series [6] deals with HEK293. Kind of series: Cytotoxicity against human HEK293 cells at 2 uM after 72 hrs by Alamar blue assay. The format is cell-based. The conditions noted are these: hek293, 72 h.

For orientation: IC50 means the concentration needed to halve the response being measured. `C[n+]1ccc2cc3c(cc2c1Cc1ccc(O)cc1)OCO3.O=C([O-])C(F)(F)F` showed an Activity in series [1] of 0%. For the same molecule, the selectivity ratio was greater than 27 in series [2] and greater than 40 in series [3]. Moreover, the IC50 came to 4.4 µM in series [4] and 3 µM in series [5].
Taken in the same sequence, the figures for `COc1ccc2c(c1O)-c1c(OC)c(OC)cc3c1[C@H](C2)NCC3.O=C(O)C(F)(F)F` were 0%, greater than 6, greater than 6, 19 µM and 17 µM.
`C[C@@H]1CC[C@H]2[C@@H](C)C(=O)O[C@@H]3O[C@@]4(C)CC[C@@H]1[C@]32OO4` [ARTEMISININ]: the Activity in series [6] is reported as 0%. Moreover, the selectivity ratio in series [2] and in series [3] was greater than 100 each time. The IC50 in series [4] and in series [5] was 0.021 µM each time.
In the case of `CCN(CC)CCCC(C)Nc1ccnc2cc(Cl)ccc12` (stereo unspecified) [CHLOROQUINE], the Activity in series [6] was determined as 0%.

Values taken from ChEMBL document CHEMBL1153808, “Antimalarial benzylisoquinoline alkaloid from the rainforest tree Doryphora sassafras” (J Nat Prod, 2009).
